Assay results published in the supplement of paper PMC10307832.

What was measured:
Assay in all cases: relative viability (nuclei count vs DMSO), 5 days (fraction); higher = more cells survive
Midostaurin + Trametinib = compound: CO[C@@H]1[C@H](N(C)C(=O)c2ccccc2)C[C@H]2O[C@]1(C)n1c3ccccc3c3c4c(c5c6ccccc6n2c5c31)C(=O)NC4 [Midostaurin] + CC(=O)Nc1cccc(-n2c(=O)n(C3CC3)c(=O)c3c(Nc4ccc(I)cc4F)n(C)c(=O)c(C)c32)c1 [Trametinib] (partner 0.02 µM)
How it was run: (§1)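 Relative viability equals treated-well nuclei counts divided by vehicle-well nuclei counts. Counts came from 4× images of lung cancer cell lines grown in 1536-well plates for 5 days after pin-tool dosing on the day after seeding. Dosing used one drug alone or a fixed anchor-drug dose plus five library-drug doses (not always all listed) in √10 steps, and values are medians of duplicate plates.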

[1] = compound: COc1cc(-c2nn([C@H]3CC[C@H](N4CCN(C(C)=O)CC4)CC3)c3ncnc(N)c23)ccc1NC(=O)c1cc2ccccc2n1C + Cc1cc(Nc2cc(N3CCN(C)CC3)nc(Sc3ccc(NC(=O)C4CC4)cc3)n2)n[nH]1 [Tozasertib] (partner 0.1 µM)
How it was run: as §1

Midostaurin + Dasatinib = compound: CO[C@@H]1[C@H](N(C)C(=O)c2ccccc2)C[C@H]2O[C@]1(C)n1c3ccccc3c3c4c(c5c6ccccc6n2c5c31)C(=O)NC4 [Midostaurin] + Cc1nc(Nc2ncc(C(=O)Nc3c(C)cccc3Cl)s2)cc(N2CCN(CCO)CC2)n1 [Dasatinib] (partner 0.075 µM)
How it was run: as §1

[2] = compound: COc1cc(-c2nn([C@H]3CC[C@H](N4CCN(C(C)=O)CC4)CC3)c3ncnc(N)c23)ccc1NC(=O)c1cc2ccccc2n1C + O=C(CCCCCCC(=O)Nc1ccccc1)NO [Vorinostat] (partner 1 µM)
How it was run: as §1

[3] = compound: COc1cc(-c2nn([C@H]3CC[C@H](N4CCN(C(C)=O)CC4)CC3)c3ncnc(N)c23)ccc1NC(=O)c1cc2ccccc2n1C + CC(C)C[C@H](NC(=O)[C@H](Cc1ccccc1)NC(=O)c1cnccn1)B(O)O [Bortezomib] (partner 0.002 µM)
How it was run: as §1

Row | Cell Line | relative viability (Midostaurin + Trametinib; first compound 0.01 µM) | relative viability (Midostaurin + Trametinib; first compound 0.03162 µM) | relative viability (Midostaurin + Trametinib; first compound 0.1 µM) | relative viability (Midostaurin + Trametinib; first compound 0.3162 µM) | relative viability ([1]; first compound 0.0128 µM) | relative viability ([1]; first compound 0.04048 µM) | relative viability ([1]; first compound 0.128 µM) | relative viability ([1]; first compound 1.28 µM) | relative viability (Midostaurin + Dasatinib; first compound 0.01 µM) | relative viability (Midostaurin + Dasatinib; first compound 0.03162 µM) | relative viability (Midostaurin + Dasatinib; first compound 0.1 µM) | relative viability (Midostaurin + Dasatinib; first compound 0.3162 µM) | relative viability ([2]; first compound 0.0128 µM) | relative viability ([2]; first compound 0.04048 µM) | relative viability ([2]; first compound 0.128 µM) | relative viability ([2]; first compound 1.28 µM) | relative viability ([3]; first compound 0.0128 µM) | relative viability ([3]; first compound 0.04048 µM) | relative viability ([3]; first compound 0.128 µM) | relative viability ([3]; first compound 1.28 µM)
1 | NCI-H838 | 0.518 | 0.562 | 0.412 | 0.311 | 0.287 | 0.289 | 0.322 | 0.209 | 0.237 | 0.282 | 0.292 | 0.288 | 0.783 | 0.763 | 0.742 | 0.685 | 1.18 | 0.817 | 0.578 | 0.628
2 | NCI-H1355 | 0.413 | 0.459 | 0.477 | 0.487 | 0.541 | 0.551 | 0.497 | 0.28 | 0.796 | 0.777 | 0.743 | 0.818 | 0.801 | 0.639 | 0.641 | 0.625 | 1.4 | 1.23 | 1.22 | 1.15
3 | NCI-H1437 | 0.615 | 0.502 | 0.588 | 0.518 | 0.393 | 0.437 | 0.387 | 0.277 | 0.354 | 0.458 | 0.35 | 0.368 | 0.967 | 1 | 0.856 | 0.864 | 0.587 | 0.522 | 0.365 | 0.585
4 | NCI-H1650 | 0.64 | 0.587 | 0.594 | 0.694 | 0.36 | 0.374 | 0.351 | 0.2 | 0.336 | 0.34 | 0.254 | 0.254 | 0.575 | 0.829 | 0.663 | 0.578 | 0.225 | 0.179 | 0.211 | 0.205
5 | NCI-H1651 | 0.81 | 0.804 | 0.795 | 0.949 | 0.616 | 0.769 | 0.635 | 0.37 | 0.322 | 0.488 | 0.408 | 0.446 | 0.571 | 0.618 | 0.545 | 0.495 | 0.85 | 0.949 | 0.939 | 0.84
6 | NCI-H1666 | 0.823 | 0.882 | 0.711 | 0.81 | 0.619 | 0.67 | 0.593 | 0.587 | 0.864 | 0.709 | 0.716 | 0.772 | 1.14 | 0.938 | 1.13 | 1.14 | 0.946 | 0.859 | 0.807 | 0.68
7 | NCI-H1734 | 0.625 | 0.678 | 0.691 | 0.685 | 0.293 | 0.234 | 0.253 | 0.201 | 0.404 | 0.632 | 0.477 | 0.338 | 0.873 | 0.787 | 0.783 | 0.852 | 0.995 | 0.862 | 1.1 | 0.756
8 | NCI-H1755 | 0.75 | 0.811 | 0.798 | 0.72 | 0.617 | 0.604 | 0.534 | 0.546 | 0.413 | 0.447 | 0.436 | 0.343 | 1 | 0.945 | 0.721 | 0.951 | 1.06 | 0.993 | 1.03 | 0.86
9 | NCI-H1915 | 0.329 | 0.312 | 0.258 | 0.271 | 0.443 | 0.44 | 0.384 | 0.317 | 0.359 | 0.334 | 0.29 | 0.331 | 0.651 | 0.577 | 0.507 | 0.44 | 1.05 | 1.03 | 0.931 | 0.929
10 | NCI-H1975 | 0.344 | 0.388 | 0.357 | 0.416 | 0.868 | 0.896 | 0.528 | 0.159 | 0.381 | 0.374 | 0.326 | 0.296 | 0.724 | 0.735 | 0.624 | 0.41 | 0.401 | 0.399 | 0.332 | 0.199
11 | NCI-H1993 | 0.484 | 0.537 | 0.447 | 0.462 | 0.568 | 0.534 | 0.56 | 0.546 | 0.65 | 0.608 | 0.668 | 0.419 | 0.916 | 0.682 | 0.957 | 0.726 | 1.2 | 1.09 | 1 | 0.956
12 | NCI-H2009 | 0.263 | 0.262 | 0.292 | 0.319 | 0.743 | 0.734 | 0.681 | 0.606 | 0.33 | 0.268 | 0.254 | 0.21 | 0.711 | 0.702 | 0.78 | 0.751 | 1.14 | 0.555 | 1.06 | 0.962
13 | NCI-H2023 | 0.499 | 0.618 | 0.375 | 0.276 | 0.381 | 0.309 | 0.179 | 0.199 | 0.585 | 0.691 | 0.539 | 0.443 | 0.821 | 0.631 | 0.646 | 0.695 | 0.977 | 1.11 | 0.897 | 0.905
14 | NCI-H2085 | 0.526 | 0.53 | 0.471 | 0.608 | 0.827 | 0.867 | 0.728 | 0.372 | 0.29 | 0.273 | 0.26 | 0.236 | 0.83 | 1.17 | 0.764 | 0.759 | 1.05 | 1.06 | 1.12 | 1.14
15 | NCI-H2087 | 0.178 | 0.221 | 0.187 | 0.273 | 0.221 |  | 0.216 | 0.194 | 1.03 | 0.757 | 0.917 | 0.777 | 0.745 |  | 0.798 | 0.987 | 0.855 | 0.772 | 0.869 | 0.991
16 | NCI-H2126 | 0.509 | 0.562 | 0.553 | 0.597 | 0.833 | 0.946 | 0.773 | 0.638 | 0.623 | 0.502 | 0.596 | 0.644 | 0.92 | 0.621 | 0.658 | 0.636 | 1.17 | 1.17 | 1.06 | 1.03
17 | NCI-H2228 | 0.522 | 0.634 | 0.792 | 0.723 | 0.273 | 0.242 | 0.22 | 0.157 | 0.501 | 0.622 | 0.534 | 0.526 | 0.869 | 0.609 | 0.568 | 0.527 | 0.945 | 1.08 | 0.804 | 0.559
18 | NCI-H2347 | 0.29 | 0.278 | 0.309 | 0.337 | 0.475 |  | 0.486 | 0.42 | 0.328 | 0.305 | 0.281 | 0.327 | 0.658 | 0.499 | 0.521 | 0.543 | 0.82 | 1.07 | 1.15 | 0.697
19 | NCI-H2405 | 0.615 | 0.562 | 0.61 | 0.607 | 0.741 | 0.601 | 0.656 | 0.391 | 0.216 | 0.199 | 0.212 | 0.201 | 1.01 | 0.886 | 0.834 | 0.374 | 0.939 |  | 0.936 | 0.668
20 | NCI-H3122 | 0.244 | 0.191 | 0.214 | 0.264 | 0.396 | 0.342 | 0.343 | 0.454 | 0.779 | 0.698 | 0.731 | 0.978 | 1.49 |  | 0.889 | 0.861 | 1.14 |  | 1.01 | 0.788
21 | PC-3 [JPC-3] | 0.684 | 0.722 | 0.699 | 0.814 | 0.845 | 0.904 | 0.802 | 0.896 | 0.952 | 0.893 | 1.07 | 1.01 | 0.667 | 0.989 | 0.808 | 1.01 | 0.94 | 0.823 | 0.827 | 0.819
22 | PC-14 | 0.707 | 0.914 | 0.692 | 0.635 | 0.562 | 0.688 | 0.559 | 0.636 | 0.251 | 0.253 | 0.218 | 0.182 | 0.931 | 0.823 | 0.653 | 0.716 | 0.9 | 0.967 | 0.892 | 1.06
23 | RERF-LC-KJ | 0.854 | 0.921 | 0.84 | 0.806 | 0.51 | 0.522 | 0.401 | 0.424 | 0.848 | 0.934 | 0.876 | 0.709 | 0.754 | 0.737 | 0.75 | 0.619 | 1.16 | 1.21 | 1.13 | 1.07
24 | SK-LU-1 | 0.511 | 0.517 | 0.521 | 0.509 | 0.346 | 0.352 | 0.273 | 0.226 | 0.198 | 0.191 | 0.176 | 0.175 | 0.797 | 0.763 | 0.765 | 0.724 | 1.53 | 1.22 | 1.17 | 0.783
25 | SW 1573 | 0.547 | 0.788 | 0.471 | 0.465 | 0.201 | 0.108 | 0.175 | 0.148 | 0.534 | 0.548 | 0.456 | 0.161 | 0.805 | 0.735 | 0.817 | 0.723 | 0.956 | 1.11 | 0.98 | 0.8
